Test results taken from the supplement of paper PMC11451515.

System: P12-Ichikawa
Assay: cell viability relative to DMSO control; higher = less cytotoxic
Conditions: 48 h
Summary of the method: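 In 1536-well plates, 5 μl of leukemia cells were seeded per well: 500 cells/well for NOMO1 or SEM and 1000 cells/well for P12-Ichikawa. Each line had first been adapted for at least four passages in each medium. Library compounds in DMSO were pin-dosed at 11 threefold concentrations between 47 μM and 0.79 nM, and CellTiter-Glo One luminescence was read after 48 h at 37°C. Viability is a per-plate percentage relative to DMSO wells, with cell-free wells as background.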

[1] = HPLM + 10% dialyzed FBS, 0.000781 µM
[2] = HPLM + 10% dialyzed FBS, 0.00234 µM
[3] = HPLM + 10% dialyzed FBS, 0.00702 µM
[4] = HPLM + 10% dialyzed FBS, 0.0211 µM
[5] = HPLM + 10% dialyzed FBS, 0.0632 µM
[6] = HPLM + 10% dialyzed FBS, 0.19 µM
[7] = HPLM + 10% dialyzed FBS, 0.569 µM
[8] = HPLM + 10% dialyzed FBS, 1.71 µM
[9] = HPLM + 10% dialyzed FBS, 5.12 µM
[10] = HPLM + 10% dialyzed FBS, 15.4 µM
[11] = HPLM + 10% dialyzed FBS, 46.1 µM
[12] = RPMI 5 mM glucose + 10% FBS, 0.000781 µM
[13] = RPMI 5 mM glucose + 10% FBS, 0.00234 µM
[14] = RPMI 5 mM glucose + 10% FBS, 0.00702 µM
[15] = RPMI 5 mM glucose + 10% FBS, 0.0211 µM
[16] = RPMI 5 mM glucose + 10% FBS, 0.0632 µM
[17] = RPMI 5 mM glucose + 10% FBS, 0.19 µM
[18] = RPMI 5 mM glucose + 10% FBS, 0.569 µM
[19] = RPMI 5 mM glucose + 10% FBS, 1.71 µM
[20] = RPMI 5 mM glucose + 10% FBS, 5.12 µM
[21] = RPMI 5 mM glucose + 10% FBS, 15.4 µM
[22] = RPMI 5 mM glucose + 10% FBS, 46.1 µM
[23] = RPMI 5 mM glucose + 10% dialyzed FBS, 0.000781 µM
[24] = RPMI 5 mM glucose + 10% dialyzed FBS, 0.00234 µM
[25] = RPMI 5 mM glucose + 10% dialyzed FBS, 0.00702 µM
[26] = RPMI 5 mM glucose + 10% dialyzed FBS, 0.0211 µM
[27] = RPMI 5 mM glucose + 10% dialyzed FBS, 0.0632 µM
[28] = RPMI 5 mM glucose + 10% dialyzed FBS, 0.19 µM
[29] = RPMI 5 mM glucose + 10% dialyzed FBS, 0.569 µM
[30] = RPMI 5 mM glucose + 10% dialyzed FBS, 1.71 µM
[31] = RPMI 5 mM glucose + 10% dialyzed FBS, 5.12 µM
[32] = RPMI 5 mM glucose + 10% dialyzed FBS, 15.4 µM
[33] = RPMI 5 mM glucose + 10% dialyzed FBS, 46.1 µM

CC(=O)OC[C@H]1O[C@@H]([S-])[C@H](OC(C)=O)[C@@H](OC(C)=O)[C@@H]1OC(C)=O.CCP(CC)CC.[Au+]
cell viability [1]: 89.2%
cell viability [2]: 88.1%
cell viability [3]: 91.2%
cell viability [4]: 99.2%
cell viability [5]: 94.1%
cell viability [6]: 102%
cell viability [7]: 98.6%
cell viability [8]: 94.5%
cell viability [9]: 71.7%
cell viability [10]: 6.24%
cell viability [11]: 6.03%
cell viability [12]: 86.8%
cell viability [13]: 89.2%
cell viability [14]: 90.6%
cell viability [15]: 93.1%
cell viability [16]: 82.2%
cell viability [17]: 90.6%
cell viability [18]: 93.4%
cell viability [19]: 89.3%
cell viability [20]: 14.8%
cell viability [21]: 5.1%
cell viability [22]: 4.94%
cell viability [23]: 87.8%
cell viability [24]: 84.1%
cell viability [25]: 81.6%
cell viability [26]: 92.7%
cell viability [27]: 79.7%
cell viability [28]: 87.6%
cell viability [29]: 91.9%
cell viability [30]: 78.2%
cell viability [31]: 6.72%
cell viability [32]: 5.18%
cell viability [33]: 5.56%

COc1cccc2c1C(=O)c1c(O)c3c(c(O)c1C2=O)C[C@@](O)(C(=O)CO)C[C@@H]3O[C@H]1C[C@H](N)[C@H](O[C@H]2CCCCO2)[C@H](C)O1
cell viability [1]: 122%
cell viability [2]: 127%
cell viability [3]: 123%
cell viability [4]: 123%
cell viability [5]: 115%
cell viability [6]: 125%
cell viability [7]: 121%
cell viability [8]: 92.3%
cell viability [9]: 9.81%
cell viability [10]: 113%
cell viability [11]: 99%
cell viability [12]: 122%
cell viability [13]: 122%
cell viability [14]: 120%
cell viability [15]: 127%
cell viability [16]: 117%
cell viability [17]: 122%
cell viability [18]: 106%
cell viability [19]: 70.2%
cell viability [20]: 6.23%
cell viability [21]: 108%
cell viability [22]: 94.6%
cell viability [23]: 125%
cell viability [24]: 121%
cell viability [25]: 102%
cell viability [26]: 128%
cell viability [27]: 117%
cell viability [28]: 114%
cell viability [29]: 97.5%
cell viability [30]: 71.5%
cell viability [31]: 7.42%
cell viability [32]: 93%
cell viability [33]: 84.7%

CC(C)=CCC/C(C)=C/CC/C(C)=C/CC/C(C)=C/CC/C(C)=C/CC/C(C)=C/CC/C(C)=C/CC/C(C)=C/CC/C(C)=C/CO
cell viability [1]: 107%
cell viability [2]: 109%
cell viability [3]: 108%
cell viability [4]: 112%
cell viability [5]: 116%
cell viability [6]: 109%
cell viability [7]: 109%
cell viability [8]: 108%
cell viability [9]: 104%
cell viability [10]: 93.4%
cell viability [11]: 106%
cell viability [12]: 105%
cell viability [13]: 103%
cell viability [14]: 115%
cell viability [15]: 103%
cell viability [16]: 108%
cell viability [17]: 98.7%
cell viability [18]: 105%
cell viability [19]: 97.1%
cell viability [20]: 91.3%
cell viability [21]: 87.1%
cell viability [22]: 96.1%
cell viability [23]: 98.3%
cell viability [24]: 100%
cell viability [25]: 92.7%
cell viability [26]: 99.6%
cell viability [27]: 103%
cell viability [28]: 102%
cell viability [29]: 106%
cell viability [30]: 97.3%
cell viability [31]: 87.9%
cell viability [32]: 95.9%
cell viability [33]: 90.3%
